Legend:
[1] = molecular target: T1, recombinant human sEH (Homo sapiens, UniProt P34913); experiment: Human soluble epoxide hydrolase inhibition, fluorescence-based assay (CMNPC substrate); type: biochemical; settings: recombinant human sEH; average of three replicates; read-out: hsEH IC50
T1 sequence (P34913 1-555): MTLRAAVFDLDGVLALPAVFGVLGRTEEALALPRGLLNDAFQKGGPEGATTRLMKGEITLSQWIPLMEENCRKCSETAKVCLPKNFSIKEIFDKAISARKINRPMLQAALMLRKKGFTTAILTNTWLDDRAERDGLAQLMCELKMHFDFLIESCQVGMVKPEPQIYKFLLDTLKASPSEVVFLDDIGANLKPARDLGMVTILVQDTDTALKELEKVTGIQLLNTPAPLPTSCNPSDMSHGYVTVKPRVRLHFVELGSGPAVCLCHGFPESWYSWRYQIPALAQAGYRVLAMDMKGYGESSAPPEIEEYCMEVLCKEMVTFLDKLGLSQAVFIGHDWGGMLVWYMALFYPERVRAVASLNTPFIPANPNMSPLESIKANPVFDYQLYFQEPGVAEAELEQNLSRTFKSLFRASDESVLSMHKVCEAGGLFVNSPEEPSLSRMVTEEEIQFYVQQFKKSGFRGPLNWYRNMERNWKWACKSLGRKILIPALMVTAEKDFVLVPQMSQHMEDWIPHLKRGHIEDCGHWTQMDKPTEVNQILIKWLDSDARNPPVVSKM
Description: Human and mouse soluble epoxide hydrolase inhibition assay. The inhibitory activity of
the target compounds toward human and mouse sEH was determined by a fluorescence-based
assay, using purified recombinant human or mouse sEH proteins and CMNPC as a fluorescent
substrate.6 The enzymes were incubated at 30 °C with the inhibitors ([I]final = 0.4-100,000
nM) for 5 min in 100 mM sodium phosphate buffer (200 µL, pH 7.4) containing 0.1 mg mL‒1
of BSA and 1% of DMSO. The substrate (CMNPC) was then added ([S]final = 5 µM). Activity
was assessed by measuring the appearance of the fluorescent 6-methoxynaphthaldehyde
(Molecular Devices). Results were obtained by regression analysis from a linear region of the
curve and are given as IC50 values, i.e., the concentration of the compound that reduces the
sEH activity by 50%. All measurements were performed in triplicate and the mean is

[2] = system: hippocampus of SAMP8 mice; experiment: Hippocampal protein levels by western blot in SAMP8 mice; type: in vivo, mouse; settings: 2 mg kg^–1 day^–1 oral, 4 weeks, vs control
Description: In Vivo Proof-of-Concept of the Dual sEH / AChE Inhibitor […] in SAMP8 Mice Animals and treatment. The senescence-accelerated mouse-prone 8 (SAMP8) is an accelerated aging model established through phenotypic selection from AKR/J mice by […]
abnormal APP and β-amyloid processing and tau pathology, among others. Likewise, SAMP8 […]
and oxidative stress markers are present at early ages and during adultness.15 In this work, 5-month-old male SAMP8 mice were used to perform behavioral and molecular analyses.
Animals were randomly divided into SAMP8 control (n=8) and SAMP8 treated with 12c […]
(n=8, 2 mg kg‒1 day‒1). The animals had free access to food and water and were kept under standard temperature conditions (22 ± 2 °C) and 12-h/12-h light/dark cycles (300 lux/0 lux).
Compound 12c was dissolved in 1.8% (2-hydroxypropyl)-β-cyclodextrin (Sigma-Aldrich, St.
Louis, MO) and administered through drinking water for 4 weeks (Figure S6 of the Supporting Information). Control groups received water plus 1.8% (2-hydroxypropyl)-β-cyclodextrin during the treatment period. After 4 weeks of treatment, behavioral and cognitive tests were performed to study the effects of treatment on working memory. Drug administration was continued until euthanasia by cervical dislocation, three days after the cognitive tests were completed. The brains were immediately removed from the skulls and the hippocampi were dissected, frozen and maintained at ‒80 °C.
Weight and water consumption were controlled each week, and compound concentration was adjusted accordingly to reach the optimal dose. Mice were treated according to European Community Council Directive 86/609/EEC and were approved by the Institutional Animal Care and Use Committee of the University of Barcelona (670/14/8102) and by Generalitat de Catalunya, Spain (10291). All studies and procedures for the behavioral tests, brain dissection and extractions followed the ARRIVE. Every effort was made to minimize animal suffering and to reduce the number of animals. […]
Exploration was defined as sniffing or touching the objects with the nose and/or forepaws.
The discrimination index (DI) was calculated as (TN‒TO)/(TN+TO). To avoid object preference biases, objects were alternated. 70% EtOH was used to clean the arms and objects after each trial for the elimination of olfactory cues.
Molecular analyses. Immunodetection experiments by western blot. The hippocampal tissue from each animal was homogenized in lysis buffer (Tris HCl pH 7.4 mM, NaCl 150 mM, EDTA 5 mM and 1X-Triton X-100) containing phosphatase and protease inhibitors (Cocktail II, Sigma-Aldrich, St. Louis, MO, USA) to obtain total protein homogenates. The Bradford technique was used to determine total protein concentration. Aliquots of 15 μg of total hippocampal protein were used and separated by sodium dodecyl sulfate-polyacrylamide gel […] (SDS-PAGE) (8‒20%) and transferred into polyvinylidene difluoride (PVDF) membranes (Merck-Millipore, Burlington, MA, USA) for 2 h. The membranes were blocked in 5% non-fat milk in TRIS-buffered saline (TBS) containing 0.1% Tween 20 (TBS-T, Sigma-Aldrich, St. Louis, MO, USA) for 1 h at room temperature, and then, overnight […]
membranes were washed with TBS-T 3 times for 5 min and incubated with secondary antibodies for 1 h at room temperature. Immunoreactive protein was viewed with a Chemiluminescence-based detection kit, following the manufacturer’s protocol (ECL Kit; Merck-Millipore), and digital images were acquired using a ChemiDoc XRS+ System (BioRad lab, Hercules, CA, USA). Semi-quantitative analyses were done using ImageLab Software (BioRad Lab), and results were expressed in Arbitrary Units (AU) considering control protein levels as 100%. Protein loading was routinely monitored by immunodetection of glyceraldehyde-3-phosphate dehydrogenase (GADPH).

O=C(Nc1ccc(OC(F)(F)F)cc1)NC1CCN(C(=O)CCCCNc2c3c(nc4cc(Cl)ccc24)CCCC3)CC1 [12c, 1-{1-{5-[(6-Chloro-1,2,3,4-tetrahydroacridin-9-yl)amino]pentanoyl}piperidin-4-yl}-3-[4-(trifluoromethoxy)phenyl]urea]
IC50 [1]: 4.6 nM
hippocampal levels of synaptophysin (SYN) [2]: significantly increased
hippocampal protein levels of NFkβ [2]: reduced in mice treated with 12c relative to untreated mice but without reaching statistical significance
hippocampal protein levels of sAPPα [2]: significant increase
hippocampal protein levels of sAPPβ [2]: tendency toward reduced levels
tau phosphorylation at Ser396 [2]: significant site-specific reduction
tau phosphorylation at Ser404 [2]: slightly decreased phosphorylation
